According to patent publication US20220347175A1, “PYRIDAZINONE DERIVATIVE” (Sumitomo Dainippon Pharma Co., Ltd., priority 2018, published 2022):

Legend:
human Nav1.5 = target: T1, human Nav1.5 (Homo sapiens, UniProt Q14524); assay: Amplification of Nav1.5-derived voltage-dependent sodium current (Nav1.5 current), cell line stably expressing human Nav1.5, automated patch clamp; assay type: cell-based
T1 construct: expressed in transfected cells; host or cells: CHO-K1 (T-REx System, ThermoFisher Scientific)
T1 sequence (Q14524 1-2015 isoform Q14524-2): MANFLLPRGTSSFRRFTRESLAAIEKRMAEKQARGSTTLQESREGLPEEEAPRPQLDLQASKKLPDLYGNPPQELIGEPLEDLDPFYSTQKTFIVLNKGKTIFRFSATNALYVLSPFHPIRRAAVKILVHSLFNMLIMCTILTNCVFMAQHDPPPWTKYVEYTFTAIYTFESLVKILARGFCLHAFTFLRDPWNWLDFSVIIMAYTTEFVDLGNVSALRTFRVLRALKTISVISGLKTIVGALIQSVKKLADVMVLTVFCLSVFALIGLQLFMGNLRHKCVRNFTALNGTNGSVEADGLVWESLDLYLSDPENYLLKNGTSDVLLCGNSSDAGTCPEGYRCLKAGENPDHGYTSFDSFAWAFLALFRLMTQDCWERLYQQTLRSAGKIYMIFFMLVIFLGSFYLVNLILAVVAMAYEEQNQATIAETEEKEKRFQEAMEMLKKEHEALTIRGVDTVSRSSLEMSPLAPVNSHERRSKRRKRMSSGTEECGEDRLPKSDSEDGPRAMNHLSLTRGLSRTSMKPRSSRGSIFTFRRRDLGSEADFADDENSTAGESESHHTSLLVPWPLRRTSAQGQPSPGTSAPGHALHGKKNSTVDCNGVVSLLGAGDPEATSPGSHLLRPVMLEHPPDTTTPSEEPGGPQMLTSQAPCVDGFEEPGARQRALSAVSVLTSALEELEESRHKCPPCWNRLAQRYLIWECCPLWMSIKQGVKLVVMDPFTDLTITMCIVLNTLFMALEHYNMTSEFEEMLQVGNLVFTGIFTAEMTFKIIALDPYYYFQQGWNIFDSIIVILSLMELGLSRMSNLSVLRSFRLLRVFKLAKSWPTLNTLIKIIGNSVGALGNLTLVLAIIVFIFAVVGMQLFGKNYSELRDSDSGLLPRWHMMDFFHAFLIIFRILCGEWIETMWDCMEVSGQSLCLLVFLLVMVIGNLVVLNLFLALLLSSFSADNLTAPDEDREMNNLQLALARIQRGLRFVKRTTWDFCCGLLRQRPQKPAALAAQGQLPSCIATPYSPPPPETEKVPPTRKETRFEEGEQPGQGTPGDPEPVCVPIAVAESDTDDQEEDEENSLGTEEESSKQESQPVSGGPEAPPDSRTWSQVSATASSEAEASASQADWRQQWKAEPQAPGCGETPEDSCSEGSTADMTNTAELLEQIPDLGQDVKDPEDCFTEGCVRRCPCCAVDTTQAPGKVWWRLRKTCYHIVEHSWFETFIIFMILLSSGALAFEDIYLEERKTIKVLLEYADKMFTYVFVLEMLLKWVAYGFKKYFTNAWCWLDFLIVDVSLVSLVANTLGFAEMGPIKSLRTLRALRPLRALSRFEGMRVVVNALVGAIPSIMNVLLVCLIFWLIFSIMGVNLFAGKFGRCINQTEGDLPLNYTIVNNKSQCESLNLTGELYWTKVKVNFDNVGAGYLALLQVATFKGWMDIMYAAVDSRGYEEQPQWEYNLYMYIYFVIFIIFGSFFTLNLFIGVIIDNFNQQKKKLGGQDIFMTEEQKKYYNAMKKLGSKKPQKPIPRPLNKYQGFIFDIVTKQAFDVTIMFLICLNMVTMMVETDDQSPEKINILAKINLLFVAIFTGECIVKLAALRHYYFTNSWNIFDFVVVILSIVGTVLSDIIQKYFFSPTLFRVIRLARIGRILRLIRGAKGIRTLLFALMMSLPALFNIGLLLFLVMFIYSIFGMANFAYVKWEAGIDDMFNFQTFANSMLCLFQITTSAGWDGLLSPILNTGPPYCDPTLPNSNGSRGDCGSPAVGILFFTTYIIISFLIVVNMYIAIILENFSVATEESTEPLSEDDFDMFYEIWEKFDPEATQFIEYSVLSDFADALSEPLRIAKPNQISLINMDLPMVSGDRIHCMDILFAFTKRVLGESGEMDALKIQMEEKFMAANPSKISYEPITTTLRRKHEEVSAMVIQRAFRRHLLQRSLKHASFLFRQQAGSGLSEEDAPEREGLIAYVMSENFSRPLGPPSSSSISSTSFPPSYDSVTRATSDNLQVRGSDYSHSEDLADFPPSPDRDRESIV
Method: Test 2: Evaluation of the Amplification in Nav1.5-Derived Voltage-Dependent Sodium Current (Nav1.5 Current) by Using a Cell Line Stably Expressing Human Nav1.5
A CHO-K1 cell line (Chinese hamster ovary) stably expressing human Nav1.5 (Gene Bank Accession No: P000326.2) was obtained by using purchased T-Rex System (ThermoFisher Scientific, USA), and used for the present test. The effect of test compounds on the amplification of Nav1.5 current was evaluated by using a cell line stably expressing human Nav1.5 and HTS automated patch clamp system, similarly in the method using Nav1.1. In other words, test compounds were added in an extracellular fluid which contained 1% DMSO and 500 nmol/L Tetrodotoxin (TTX), and evaluated as a change of the peak value of Nav1.5 current and the area under the curve (AUC). The induction and the measurement of Nav1.5 current, the pharmacologic effect on Nav1.5 current, and a method for pharmacological evaluation were carried out by the same method as in Nav1.1.

human Nav1.1 = target: T2, human Nav1.1 (Homo sapiens, UniProt P35498); assay: Amplification of Nav1.1-derived voltage-dependent sodium current (Nav1.1 current), cell line stably expressing human Nav1.1, automated patch clamp; assay type: cell-based; details: for activation at 1 µM: Concentration 1 μM (Test Result 7); for activation at 1 µM / activation at 10 µM / activation at 50 µM: read-out: Nav1.1 current amplification rate (%); for activation at 10 µM: Concentration 10 μM (Test Result 7); for activation at 50 µM: Concentration 50 μM (Test Result 7)
T2 construct: host or cells: HEK293
In short: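 Amplification rate (%) is 100 × post-compound/pre-compound Nav1.1 peak current or AUC, minus 100. Ramp-evoked sodium currents were recorded by automated patch clamp in a human Nav1.1 HEK293 stable line, restricted to cells exceeding 500 pA, with compounds added in extracellular solution containing 1% DMSO.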

[1] = compound 3 μmol/L, CHO-K1 stably expressing human Nav1.5
[2] = compound 3 μmol/L, HEK293 stably expressing human Nav1.1
[3] = compound 1 μmol/L, CHO-K1 stably expressing human Nav1.5
[4] = compound 1 μmol/L, HEK293 stably expressing human Nav1.1
[5] = 10 μmol/L compound, change of the area under the curve of Nav1.5 current (Test Result 1)
[6] = 10 μmol/L compound, change of the area under the curve of Nav1.1 current (Test Result 1)

Compound: CC1CC=C(c2ccc(=O)n(CC(=O)N3CCc4c(C5CCNC5)cccc43)n2)CC1 (mixture of isomers) [Example 268]
- Nav1.5 current amplification rate (%) (human Nav1.5; [1]): 22%
- Nav1.1 current amplification rate (%) (human Nav1.1; [2]): 55%

Compound: CC1CC=C(c2ccc(=O)n(CC(=O)N3CCc4c(C5CCN(C)C5)cccc43)n2)CC1 (mixture of isomers) [Example 269]
- Nav1.5 current amplification rate (%) (human Nav1.5; [1]): 266%
- Nav1.1 current amplification rate (%) (human Nav1.1; [2]): 127%

Compound: CC1CC=C(c2ccc(=O)n(CC(=O)N3CCc4c(CN5CC6CC5CO6)cccc43)n2)CC1 (mixture of isomers) [Example 278]
- Nav1.5 current amplification rate (%) (human Nav1.5; [3]): 27%
- Nav1.1 current amplification rate (%) (human Nav1.1; [4]): 204%

Compound: CC1CCC(c2ccc(=O)n(CC(=O)N3CCc4c(N5CCOCC5)cccc43)n2)CC1 (mixture of isomers) [Example 472]
- Nav1.5 current amplification rate (%) (human Nav1.5; [5]): 56%
- Nav1.1 current amplification rate (%) (human Nav1.1; [6]): 387%

Compound: COc1nc2cc(NC(=O)Cn3nc(C4=CCC(C)CC4)ccc3=O)ccc2o1 (racemic) [Example 239]
- Nav1.5 current amplification rate (%) (human Nav1.5; [5]): 31%
- Nav1.1 current amplification rate (%) (human Nav1.1; [6]): 310%

Compound: Cc1noc2cc(NC(=O)Cn3nc(C4=CCC(C)CC4)ccc3=O)ccc12 (racemic) [Example 240]
- Nav1.5 current amplification rate (%) (human Nav1.5; [5]): 174%
- Nav1.1 current amplification rate (%) (human Nav1.1; [6]): 241%

Compound: CC1CC=C(c2ccc(=O)n(CC(=O)Nc3cc(F)c4ocnc4c3)n2)CC1 (racemic) [Example 241]
- Nav1.5 current amplification rate (%) (human Nav1.5; [5]): 26%
- Nav1.1 current amplification rate (%) (human Nav1.1; [6]): 260%

Compound: CC1CC=C(c2ccc(=O)n(CC(=O)Nc3ccn4ccnc4n3)n2)CC1 (racemic) [Example 242]
- Nav1.5 current amplification rate (%) (human Nav1.5; [5]): 10%
- Nav1.1 current amplification rate (%) (human Nav1.1; [6]): 97%

Compound: CC1CC=C(c2ccc(=O)n(CC(=O)Nc3ccc4oc(C(F)F)nc4c3)n2)CC1 (racemic) [Example 243]
- Nav1.5 current amplification rate (%) (human Nav1.5; [5]): 19%
- Nav1.1 current amplification rate (%) (human Nav1.1; [6]): 276%

Compound: CC1CC=C(c2ccc(=O)n(CC(=O)N3CCc4c(N5CCOCC5)cccc43)n2)CC1 (racemic) [Example 245]
- Nav1.5 current amplification rate (%) (human Nav1.5; [3]): 32%
- Nav1.1 current amplification rate (%) (human Nav1.1; [4]): 393%

Compound: CC1CC=C(c2ccc(=O)n(CC(=O)N3CCc4cc(N5CCOCC5)ccc43)n2)CC1 (racemic) [Example 246]
- Nav1.5 current amplification rate (%) (human Nav1.5; [5]): 145%
- Nav1.1 current amplification rate (%) (human Nav1.1; [6]): 136%

Compound: CC1CC=C(c2ccc(=O)n(CC(=O)N3CCc4c3ccnc4Cl)n2)CC1 (racemic) [Example 247]
- Nav1.5 current amplification rate (%) (human Nav1.5; [5]): 43%
- Nav1.1 current amplification rate (%) (human Nav1.1; [6]): 53%

Compound: CC1CC=C(c2ccc(=O)n(CC(=O)N3CCc4c(-c5cccnc5)cccc43)n2)CC1 (racemic) [Example 248]
- Nav1.5 current amplification rate (%) (human Nav1.5; [1]): 44%
- Nav1.1 current amplification rate (%) (human Nav1.1; [2]): 392%

Compound: COc1ncc(-c2cccc3c2CCN3C(=O)Cn2nc(C3=CCC(C)CC3)ccc2=O)cn1 (racemic) [Example 249]
- Nav1.5 current amplification rate (%) (human Nav1.5; [1]): 106%
- Nav1.1 current amplification rate (%) (human Nav1.1; [2]): 584%

Compound: CC1CC=C(c2ccc(=O)n(CC(=O)N3CCc4c(-c5ccncc5)cccc43)n2)CC1 (racemic) [Example 250]
- Nav1.5 current amplification rate (%) (human Nav1.5; [1]): 121%
- Nav1.1 current amplification rate (%) (human Nav1.1; [2]): 564%

Compound: CC1CC=C(c2ccc(=O)n(CC(=O)N3CCc4c(-c5ccnn5C)cccc43)n2)CC1 (racemic) [Example 251]
- Nav1.5 current amplification rate (%) (human Nav1.5; [1]): 15%
- Nav1.1 current amplification rate (%) (human Nav1.1; [2]): 307%

Compound: CC1CC=C(c2ccc(=O)n(CC(=O)N3CCc4c(-c5ccn(C)n5)cccc43)n2)CC1 (racemic) [Example 252]
- Nav1.5 current amplification rate (%) (human Nav1.5; [1]): 31%
- Nav1.1 current amplification rate (%) (human Nav1.1; [2]): 254%

Compound: CC1CC=C(c2ccc(=O)n(CC(=O)N3CCc4c(-c5ccnnc5)cccc43)n2)CC1 (racemic) [Example 253]
- Nav1.5 current amplification rate (%) (human Nav1.5; [1]): 85%
- Nav1.1 current amplification rate (%) (human Nav1.1; [2]): 455%

Compound: CC1CC=C(c2ccc(=O)n(CC(=O)N3CCc4c(-c5cn[nH]c5)cccc43)n2)CC1 (racemic) [Example 254]
- Nav1.5 current amplification rate (%) (human Nav1.5; [1]): 74%
- Nav1.1 current amplification rate (%) (human Nav1.1; [2]): 309%

Compound: CC1CC=C(c2ccc(=O)n(CC(=O)Nc3cccc4nccn34)n2)CC1 (racemic) [Example 255]
- Nav1.5 current amplification rate (%) (human Nav1.5; [5]): 15%
- Nav1.1 current amplification rate (%) (human Nav1.1; [6]): 32%

Compound: CC1CC=C(c2ccc(=O)n(CC(=O)N3CCC(c4ccccc4)CC3)n2)CC1 (racemic) [Example 256]
- Nav1.5 current amplification rate (%) (human Nav1.5; [5]): −30%
- Nav1.1 current amplification rate (%) (human Nav1.1; [6]): 36%

Compound: CC1CC=C(c2ccc(=O)n(CC(=O)N3CC=C(c4ccccc4)CC3)n2)CC1 (racemic) [Example 257]
- Nav1.5 current amplification rate (%) (human Nav1.5; [1]): 0%
- Nav1.1 current amplification rate (%) (human Nav1.1; [2]): 45%

Compound: CC1CC=C(c2ccc(=O)n(CC(=O)N3CCN(c4ccccc4)CC3)n2)CC1 (racemic) [Example 258]
- Nav1.5 current amplification rate (%) (human Nav1.5; [1]): 4%
- Nav1.1 current amplification rate (%) (human Nav1.1; [2]): 79%

Compound: CC1CC=C(c2ccc(=O)n(CC(=O)N3CCC(c4ccncc4)CC3)n2)CC1 (racemic) [Example 259]
- Nav1.5 current amplification rate (%) (human Nav1.5; [5]): 2%
- Nav1.1 current amplification rate (%) (human Nav1.1; [6]): 71%

Compound: CC1CC=C(c2ccc(=O)n(CC(=O)Nc3cccc(N4CCOCC4)c3)n2)CC1 (centres unmarked) [Example 549]
- activation at 1 µM (human Nav1.1): 33%

Compound: CC1CC=C(c2ccc(=O)n(CC(=O)Nc3ccc4c(O)ncnc4c3)n2)CC1 (centres unmarked) [Example 550]
- activation at 1 µM (human Nav1.1): 31%

Compound: CC1CC=C(c2ccc(=O)n(CC(=O)Nc3ncc4ccccc4n3)n2)CC1 (centres unmarked) [Example 551]
- activation at 10 µM (human Nav1.1): 16%

Compound: CC1CC=C(c2ccc(=O)n(CC(=O)Nc3ccn4ncnc4c3F)n2)CC1 (centres unmarked) [Example 552]
- activation at 1 µM (human Nav1.1): 24%

Compound: O=C(Cn1nc(N2CCC3(CCC3)CC2)ccc1=O)Nc1ccc2cncnc2c1 [Example 553]
- activation at 1 µM (human Nav1.1): 155%

Compound: CCC1CC=C(c2ccc(=O)n(CC(=O)Nc3ccn4ncnc4c3)n2)CC1 (centres unmarked) [Example 554]
- activation at 1 µM (human Nav1.1): 115%

Compound: CCC1CC=C(c2ccc(=O)n(CC(=O)Nc3ccc4ncnn4c3)n2)CC1 (centres unmarked) [Example 555]
- activation at 1 µM (human Nav1.1): 80%

Compound: CN(c1ccc(=O)n(CC(=O)Nc2ccn3ncnc3c2)n1)C1CCCC1 [Example 556]
- activation at 1 µM (human Nav1.1): 13%

Compound: O=C(Cn1nc(N2CCC3(CC3)C(F)(F)C2)ccc1=O)Nc1ccn2ncnc2c1 [Example 557]
- activation at 1 µM (human Nav1.1): 17%

Compound: CN(c1ccc(=O)n(CC(=O)Nc2ccn3ncnc3c2)n1)C1CC1 [Example 558]
- activation at 10 µM (human Nav1.1): 11%

Compound: CN(CC1CC1)c1ccc(=O)n(CC(=O)Nc2ccn3ncnc3c2)n1 [Example 559]
- activation at 10 µM (human Nav1.1): 34%

Compound: N#Cc1ccc(NC(=O)Cn2nc(N3CCC4(CC4)C(F)(F)C3)ccc2=O)cn1 [Example 560]
- activation at 1 µM (human Nav1.1): 12%

Compound: CN(c1ccc(=O)n(CC(=O)Nc2ccc(C#N)nc2)n1)C1CCCC1 [Example 561]
- activation at 1 µM (human Nav1.1): 17%

Compound: CN(c1ccc(=O)n(CC(=O)N2CCc3c(-c4ccnnc4)cccc32)n1)C1CCCC1 [Example 562]
- activation at 1 µM (human Nav1.1): 247%

Compound: CN(c1ccc(=O)n(CC(=O)Nc2ccc3cnccc3c2)n1)C1CCCC1 [Example 563]
- activation at 1 µM (human Nav1.1): 50%

Compound: CN(c1ccc(=O)n(CC(=O)Nc2cnc3cccnc3c2)n1)C1CCCC1 [Example 564]
- activation at 10 µM (human Nav1.1): 73%

Compound: CN(c1ccc(=O)n(CC(=O)N2CCc3c(N4CCOCC4)cccc32)n1)C1CCCC1 [Example 565]
- activation at 1 µM (human Nav1.1): 62%

Compound: Cc1ccc(-c2ccc(=O)n(CC(=O)Nc3ccn4ncnc4c3)n2)c(F)c1 [Example 566]
- activation at 1 µM (human Nav1.1): 98%

Compound: CN(CC1(C)CC1)c1ccc(=O)n(CC(=O)Nc2ccc3cnccc3c2)n1 [Example 567]
- activation at 50 µM (human Nav1.1): 281%

Compound: CN(CC1(C)CC1)c1ccc(=O)n(CC(=O)N2CCc3c(N4CCOCC4)cccc32)n1 [Example 568]
- activation at 1 µM (human Nav1.1): 42%

Compound: CN(c1ccc(=O)n(CC(=O)Nc2ccc3cnccc3c2)n1)C1CC2(CC2)C1 [Example 569]
- activation at 50 µM (human Nav1.1): 393%

Compound: CN(c1ccc(=O)n(CC(=O)N2CCc3c(N4CCOCC4)cccc32)n1)C1CC2(CC2)C1 [Example 570]
- activation at 1 µM (human Nav1.1): 99%

Compound: COc1cc(C)cc(F)c1-c1ccc(=O)n(CC(=O)Nc2ccn3ncnc3c2)n1 [Example 571]
- activation at 10 µM (human Nav1.1): 24%
